Data reported in PubChem BioAssay (NCI).
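How tested: cells in 96-well plates exposed to compound for 48 hours at five concentrations. Here, GI50 denotes the concentration required for 50% inhibition of growth. TGI is the concentration that stops growth completely.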

Columns and labels:
Test in all cases: DTP human tumour cell line panel, 48 h
786-0 renal = system: 786-0 renal
A549 NSCLC = system: A549 NSCLC
ACHN renal = system: ACHN renal
BT-549 breast = system: BT-549 breast
CAKI-1 renal = system: CAKI-1 renal
CCRF-CEM leukemia = system: CCRF-CEM leukemia
COLO 205 colon = system: COLO 205 colon
DU-145 prostate = system: DU-145 prostate
EKVX NSCLC = system: EKVX NSCLC
HCC-2998 colon = system: HCC-2998 colon
HCT-116 colon = system: HCT-116 colon
HCT-15 colon = system: HCT-15 colon
HOP-62 NSCLC = system: HOP-62 NSCLC
HOP-92 NSCLC = system: HOP-92 NSCLC
HS 578T breast = system: HS 578T breast
HT29 colon = system: HT29 colon
IGROV1 ovarian = system: IGROV1 ovarian
K-562 leukemia = system: K-562 leukemia
KM12 colon = system: KM12 colon
LOX IMVI melanoma = system: LOX IMVI melanoma
MALME-3M melanoma = system: MALME-3M melanoma
MCF7 breast = system: MCF7 breast
MDA-MB-231 breast = system: MDA-MB-231 breast
MDA-MB-435 = system: MDA-MB-435
MOLT-4 leukemia = system: MOLT-4 leukemia
NCI-H226 lung = system: NCI-H226 lung
NCI-H23 lung = system: NCI-H23 lung
NCI-H460 lung = system: NCI-H460 lung
NCI-H522 lung = system: NCI-H522 lung
NCI/ADR-RES ovarian = system: NCI/ADR-RES ovarian
OVCAR-3 ovarian = system: OVCAR-3 ovarian
OVCAR-4 ovarian = system: OVCAR-4 ovarian
OVCAR-5 ovarian = system: OVCAR-5 ovarian
OVCAR-8 ovarian = system: OVCAR-8 ovarian
PC-3 prostate = system: PC-3 prostate
RPMI-8226 leukemia = system: RPMI-8226 leukemia
RXF 393 renal = system: RXF 393 renal
SF-268 CNS = system: SF-268 CNS
SF-295 CNS = system: SF-295 CNS
SF-539 CNS = system: SF-539 CNS
SK-MEL-2 melanoma = system: SK-MEL-2 melanoma
SK-MEL-28 melanoma = system: SK-MEL-28 melanoma
SK-MEL-5 melanoma = system: SK-MEL-5 melanoma
SK-OV-3 ovarian = system: SK-OV-3 ovarian
SN12C renal = system: SN12C renal
SNB-19 CNS = system: SNB-19 CNS
SNB-75 CNS = system: SNB-75 CNS
SR leukemia = system: SR leukemia
SW-620 colon = system: SW-620 colon
T-47D breast = system: T-47D breast
TK-10 renal = system: TK-10 renal
U251 CNS = system: U251 CNS
UACC-257 melanoma = system: UACC-257 melanoma
UACC-62 melanoma = system: UACC-62 melanoma
UO-31 renal = system: UO-31 renal

`C=C1C(O)C2C(=C(C)C13CC3)C(=O)C(C)(C)C2OC` (stereo not given) was tested, and the GI50 (786-0 renal) was over 100 µM, the TGI (786-0 renal) was over 100 µM and the GI50 (A549 NSCLC) was over 100 µM. The TGI (A549 NSCLC) was over 100 µM, the GI50 (ACHN renal) was over 100 µM and the TGI (ACHN renal) was over 100 µM. It also gave a GI50 (BT-549 breast) of over 100 µM, a TGI (BT-549 breast) of over 100 µM and a GI50 (CAKI-1 renal) of 71.8 µM. It also gave a TGI (CAKI-1 renal) of over 100 µM, a GI50 (CCRF-CEM leukemia) of 78.3 µM and a TGI (CCRF-CEM leukemia) of over 100 µM. It also gave a GI50 (COLO 205 colon) of 95.6 µM, a TGI (COLO 205 colon) of over 100 µM and a GI50 (DU-145 prostate) of over 100 µM. The TGI (DU-145 prostate) was over 100 µM, the GI50 (EKVX NSCLC) was over 100 µM and the TGI (EKVX NSCLC) was over 100 µM. For the same molecule, the GI50 (HCC-2998 colon) was over 100 µM, the TGI (HCC-2998 colon) was over 100 µM and the GI50 (HCT-116 colon) was over 100 µM. The TGI (HCT-116 colon) was over 100 µM, the GI50 (HCT-15 colon) was over 100 µM and the TGI (HCT-15 colon) was over 100 µM. The GI50 (HOP-62 NSCLC) was over 100 µM, the TGI (HOP-62 NSCLC) was over 100 µM and the GI50 (HOP-92 NSCLC) was 24.8 µM. For the same molecule, the TGI (HOP-92 NSCLC) was over 100 µM, the GI50 (HS 578T breast) was 59.6 µM and the TGI (HS 578T breast) was over 100 µM. The GI50 (HT29 colon) was over 100 µM, the TGI (HT29 colon) was over 100 µM and the GI50 (IGROV1 ovarian) was over 100 µM. It also gave a TGI (IGROV1 ovarian) of over 100 µM, a GI50 (K-562 leukemia) of 42.9 µM and a TGI (K-562 leukemia) of over 100 µM. For the same molecule, the GI50 (KM12 colon) was over 100 µM, the TGI (KM12 colon) was over 100 µM and the GI50 (LOX IMVI melanoma) was over 100 µM. For the same molecule, the TGI (LOX IMVI melanoma) was over 100 µM, the GI50 (MALME-3M melanoma) was over 100 µM and the TGI (MALME-3M melanoma) was over 100 µM. For the same molecule, the GI50 (MCF7 breast) was 69.4 µM, the TGI (MCF7 breast) was over 100 µM and the GI50 (MDA-MB-231 breast) was 53.4 µM. It also gave a TGI (MDA-MB-231 breast) of over 100 µM, a GI50 (MDA-MB-435) of over 100 µM and a TGI (MDA-MB-435) of over 100 µM. The GI50 (MOLT-4 leukemia) was 38.6 µM, the TGI (MOLT-4 leukemia) was over 100 µM and the GI50 (NCI-H226 lung) was over 100 µM. It also gave a TGI (NCI-H226 lung) of over 100 µM, a GI50 (NCI-H23 lung) of over 100 µM and a TGI (NCI-H23 lung) of over 100 µM. The GI50 (NCI-H460 lung) was over 100 µM, the TGI (NCI-H460 lung) was over 100 µM and the GI50 (NCI-H522 lung) was 75.4 µM. The TGI (NCI-H522 lung) was over 100 µM, the GI50 (NCI/ADR-RES ovarian) was over 100 µM and the TGI (NCI/ADR-RES ovarian) was over 100 µM. For the same molecule, the GI50 (OVCAR-3 ovarian) was over 100 µM, the TGI (OVCAR-3 ovarian) was over 100 µM and the GI50 (OVCAR-4 ovarian) was over 100 µM. It also gave a TGI (OVCAR-4 ovarian) of over 100 µM, a GI50 (OVCAR-5 ovarian) of over 100 µM and a TGI (OVCAR-5 ovarian) of over 100 µM. The GI50 (OVCAR-8 ovarian) was 71.9 µM, the TGI (OVCAR-8 ovarian) was over 100 µM and the GI50 (PC-3 prostate) was over 100 µM. For the same molecule, the TGI (PC-3 prostate) was over 100 µM, the GI50 (RPMI-8226 leukemia) was 41.3 µM and the TGI (RPMI-8226 leukemia) was over 100 µM. For the same molecule, the GI50 (RXF 393 renal) was over 100 µM, the TGI (RXF 393 renal) was over 100 µM and the GI50 (SF-268 CNS) was over 100 µM. It also gave a TGI (SF-268 CNS) of over 100 µM, a GI50 (SF-295 CNS) of over 100 µM and a TGI (SF-295 CNS) of over 100 µM. The GI50 (SF-539 CNS) was over 100 µM, the TGI (SF-539 CNS) was over 100 µM and the GI50 (SK-MEL-2 melanoma) was over 100 µM. It also gave a TGI (SK-MEL-2 melanoma) of over 100 µM, a GI50 (SK-MEL-28 melanoma) of over 100 µM and a TGI (SK-MEL-28 melanoma) of over 100 µM. The GI50 (SK-MEL-5 melanoma) was 50.5 µM, the TGI (SK-MEL-5 melanoma) was over 100 µM and the GI50 (SK-OV-3 ovarian) was over 100 µM. The TGI (SK-OV-3 ovarian) was over 100 µM, the GI50 (SN12C renal) was over 100 µM and the TGI (SN12C renal) was over 100 µM. It also gave a GI50 (SNB-19 CNS) of over 100 µM, a TGI (SNB-19 CNS) of over 100 µM and a GI50 (SNB-75 CNS) of over 100 µM. The TGI (SNB-75 CNS) was over 100 µM, the GI50 (SR leukemia) was 38 µM and the TGI (SR leukemia) was over 100 µM. The GI50 (SW-620 colon) was over 100 µM, the TGI (SW-620 colon) was over 100 µM and the GI50 (T-47D breast) was 23.1 µM. For the same molecule, the TGI (T-47D breast) was 67.8 µM, the GI50 (TK-10 renal) was over 100 µM and the TGI (TK-10 renal) was over 100 µM. It also gave a GI50 (U251 CNS) of over 100 µM, a TGI (U251 CNS) of over 100 µM and a GI50 (UACC-257 melanoma) of 44.4 µM. For the same molecule, the TGI (UACC-257 melanoma) was over 100 µM, the GI50 (UACC-62 melanoma) was 90.4 µM and the TGI (UACC-62 melanoma) was over 100 µM. The GI50 (UO-31 renal) was over 100 µM and the TGI (UO-31 renal) was over 100 µM.
